Measured values: patent publication US8802661B2, “C-28 amides of modified C-3 betulinic acid derivatives as HIV maturation inhibitors” (priority 2010, dated 2014)
Where two headings read alike, the source gives them in different places.

System: recombinant NL4-3 virus (Renilla luciferase in nef, Gag P373S)
Assay: HIV Cell Culture Assay (luciferase reporter virus in MT-2 cells)
Format: cell-based
Summary of the method: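 First, reporter virus was generated in 293T cells and titered on MT-2 cells. Next, MT-2 cells were infected in the presence of serial compound dilutions for 4-5 days. Finally, cells were lysed and luciferase activity was measured to quantify inhibition.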

Row | Compound | EC50 (NL43, read-out: EC50 Group) [nM] | EC50 (NL43) [nM]
1 | C=C(C)[C@@H]1CC[C@]2(C(=O)NCCCN(CC)CCC(=O)O)CC[C@]3(C)[C@H](CC[C@@H]4[C@@]5(C)CC=C(c6ccc(C(=O)O)cc6)C(C)(C)[C@@H]5CC[C@]43C)[C@@H]12 [Example 99, 4-((1R,3aS,5aR,5bR,7aR,11aS,11bR,13aR,13bR)-3a-(3-((2-carboxyethyl)(ethyl)amino)propylcarbamoyl)-5a,5b,8,8,11a-pentamethyl-1-(prop-1-en-2-yl)-2,3,3a,4,5,5a,5b,6,7,7a,8,11,11a,11b,12,13,13a,13b-octadecahydro-1H-cyclopenta[a]chrysen-9-yl)benzoic acid] | < 100 | –
2 | C=C(C)[C@@H]1CC[C@]2(C(=O)NCCN3CCS(=O)(=O)CC3)CC[C@]3(C)[C@H](CC[C@@H]4[C@@]5(C)CC=C(c6ccc(C(=O)O)cc6F)C(C)(C)[C@@H]5CC[C@]43C)[C@@H]12 [Example 120, 4-((1R,3aS,5aR,5bR,7aR,11aS,11bR,13aR,13bR)-3a-((2-(1,1-dioxido-4-thiomorpholinyl)ethyl)carbamoyl)-1-isopropenyl-5a,5b,8,8,11a-pentamethyl-2,3,3a,4,5,5a,5b,6,7,7a,8,11,11a,11b,12,13,13a,13b-octadecahydro-1H-cyclopenta[a]chrysen-9-yl)-3-fluorobenzoic acid] | < 100 | –
3 | C=C(C)[C@@H]1CC[C@]2(C(=O)NCCCN3CCOCC3)CC[C@]3(C)[C@H](CC[C@@H]4[C@@]5(C)CC=C(c6ccc(C(=O)O)cc6)C(C)(C)[C@@H]5CC[C@]43C)[C@@H]12 [Example 32, 4-((1R,3aS,5aR,5bR,7aR,11aS,11bR,13aR,13bR)-5a,5b,8,8,11a-pentamethyl-3a-(3-morpholinopropylcarbamoyl)-1-(prop-1-en-2-yl)-2,3,3a,4,5,5a,5b,6,7,7a,8,11,11a,11b,12,13,13a,13b-octadecahydro-1H-cyclopenta[a]chrysen-9-yl)benzoic acid] | < 100 | –
4 | C=C(C)[C@@H]1CC[C@]2(C(=O)NCCC(C)C)CC[C@]3(C)[C@H](CC[C@@H]4[C@@]5(C)CC=C(c6ccc(C(=O)O)cc6)C(C)(C)[C@@H]5CC[C@]43C)[C@@H]12 [Example 129, 4-((1R,3aS,5aR,5bR,7aR,11aS,11bR,13aR,13bR)-3a-(isopentylcarbamoyl)-5a,5b,8,8,11a-pentamethyl-1-(prop-1-en-2-yl)-2,3,3a,4,5,5a,5b,6,7,7a,8,11,11a,11b,12,13,13a,13b-octadecahydro-1H-cyclopenta[a]chrysen-9-yl)benzoic acid] | < 100 | –
5 | C=C(C)[C@@H]1CC[C@]2(C(=O)NCC(=O)O)CC[C@]3(C)[C@H](CC[C@@H]4[C@@]5(C)CC=C(c6ccc(C(=O)O)cc6)C(C)(C)[C@@H]5CC[C@]43C)[C@@H]12 [Example 62, 4-((1R,3aS,5aR,5bR,7aR,11aS,11bR,13aR,13bR)-3a-(carboxymethylcarbamoyl)-5a,5b,8,8,11a-pentamethyl-1-(prop-1-en-2-yl)-2,3,3a,4,5,5a,5b,6,7,7a,8,11,11a,11b,12,13,13a,13b-octadecahydro-1H-cyclopenta[a]chrysen-9-yl)benzoic acid] | > 100 | –
6 | C=C(C)[C@@H]1CC[C@]2(C(=O)NCCN3CCC(F)(F)CC3)CC[C@]3(C)[C@H](CC[C@@H]4[C@@]5(C)CC=C(c6ccc(C(=O)O)cc6F)C(C)(C)[C@@H]5CC[C@]43C)[C@@H]12 [Example 119, 4-((1R,3aS,5aR,5bR,7aR,11aS,11bR,13aR,13bR)-3a-(2-(4,4-difluoropiperidin-1-yl)ethylcarbamoyl)-5a,5b,8,8,11a-pentamethyl-1-(prop-1-en-2-yl)-2,3,3a,4,5,5a,5b,6,7,7a,8,11,11a,11b,12,13,13a,13b-octadecahydro-1H-cyclopenta[a]chrysen-9-yl)-3-fluorobenzoic acid] | < 100 | –
7 | C=C(C)[C@@H]1CC[C@]2(C(=O)N[C@H](C(=O)O)c3ccccc3)CC[C@]3(C)[C@H](CC[C@@H]4[C@@]5(C)CC=C(c6ccc(C(=O)O)cc6)C(C)(C)[C@@H]5CC[C@]43C)[C@@H]12 [Example 56, 4-((1R,3aS,5aR,5bR,7aR,11aS,11bR,13aR,13bR)-3a-((S)-carboxy(phenyl)methylcarbamoyl)-5a,5b,8,8,11a-pentamethyl-1-(prop-1-en-2-yl)-2,3,3a,4,5,5a,5b,6,7,7a,8,11,11a,11b,12,13,13a,13b-octadecahydro-1H-cyclopenta[a]chrysen-9-yl)benzoic acid] | < 100 | –
8 | C=C(C)[C@@H]1CC[C@]2(C(=O)Nc3nc(C(=O)O)c(C)s3)CC[C@]3(C)[C@H](CC[C@@H]4[C@@]5(C)CC=C(c6ccc(C(=O)O)cc6)C(C)(C)[C@@H]5CC[C@]43C)[C@@H]12 [Example 47, 2-((1R,3aS,5aR,5bR,7aR,11aS,11bR,13aR,13bR)-9-(4-carboxyphenyl)-5a,5b,8,8,11a-pentamethyl-1-(prop-1-en-2-yl)-2,3,3a,4,5,5a,5b,6,7,7a,8,11,11a,11b,12,13,13a,13b-octadecahydro-1H-cyclopenta[a]chrysene-3a-carboxamido)-5-methylthiazole-4-carboxylic acid] | – | 8.7
9 | C=C(C)[C@@H]1CC[C@]2(C(=O)NCCN(CC)CCCC(=O)O)CC[C@]3(C)[C@H](CC[C@@H]4[C@@]5(C)CC=C(c6ccc(C(=O)O)cc6)C(C)(C)[C@@H]5CC[C@]43C)[C@@H]12 [Example 103, 4-((1R,3aS,5aR,5bR,7aR,11aS,11bR,13aR,13bR)-3a-(2-((3-carboxypropyl)(ethyl)amino)ethylcarbamoyl)-5a,5b,8,8,11a-pentamethyl-1-(prop-1-en-2-yl)-2,3,3a,4,5,5a,5b,6,7,7a,8,11,11a,11b,12,13,13a,13b-octadecahydro-1H-cyclopenta[a]chrysen-9-yl)benzoic acid] | < 100 | –
10 | C=C(C)[C@@H]1CC[C@]2(C(=O)N[C@@H](C)C(=O)O)CC[C@]3(C)[C@H](CC[C@@H]4[C@@]5(C)CC=C(c6ccc(C(=O)O)cc6)C(C)(C)[C@@H]5CC[C@]43C)[C@@H]12 [Example 57, 4-((1R,3aS,5aR,5bR,7aR,11aS,11bR,13aR,13bR)-3a-((S)-1-carboxyethylcarbamoyl)-5a,5b,8,8,11a-pentamethyl-1-(prop-1-en-2-yl)-2,3,3a,4,5,5a,5b,6,7,7a,8,11,11a,11b,12,13,13a,13b-octadecahydro-1H-cyclopenta[a]chrysen-9-yl)benzoic acid] | – | 700
11 | C=C(C)[C@@H]1CC[C@]2(C(=O)NCCN3CCN(C(=O)OC(C)(C)C)CC3)CC[C@]3(C)[C@H](CC[C@@H]4[C@@]5(C)CC=C(c6ccc(C(=O)O)cc6)C(C)(C)[C@@H]5CC[C@]43C)[C@@H]12 [Example 37, 4-((1R,3aS,5aR,5bR,7aR,11aS,11bR,13aR,13bR)-3a-(2-(4-(tert-butoxycarbonyl)piperazin-1-yl)ethylcarbamoyl)-5a,5b,8,8,11a-pentamethyl-1-(prop-1-en-2-yl)-2,3,3a,4,5,5a,5b,6,7,7a,8,11,11a,11b,12,13,13a,13b-octadecahydro-1H-cyclopenta[a]chrysen-9-yl)benzoic acid] | < 100 | –
12 | C=C(C)[C@@H]1CC[C@]2(C(=O)NCCCN(CC)CC(=O)O)CC[C@]3(C)[C@H](CC[C@@H]4[C@@]5(C)CC=C(c6ccc(C(=O)O)cc6)C(C)(C)[C@@H]5CC[C@]43C)[C@@H]12 [Example 102, 4-((1R,3aS,5aR,5bR,7aR,11aS,11bR,13aR,13bR)-3a-(3-((carboxymethyl)(ethyl)amino)propylcarbamoyl)-5a,5b,8,8,11a-pentamethyl-1-(prop-1-en-2-yl)-2,3,3a,4,5,5a,5b,6,7,7a,8,11,11a,11b,12,13,13a,13b-octadecahydro-1H-cyclopenta[a]chrysen-9-yl)benzoic acid] | – | 10.5
13 | C=C(C)[C@@H]1CC[C@]2(C(=O)NCC(O)C(=O)O)CC[C@]3(C)[C@H](CC[C@@H]4[C@@]5(C)CC=C(c6ccc(C(=O)O)cc6)C(C)(C)[C@@H]5CC[C@]43C)[C@@H]12 (stereo partly drawn) [Example 79, 4-((1R,3aS,5aR,5bR,7aR,11aS,11bR,13aR,13bR)-3a-(2-carboxy-2-hydroxyethylcarbamoyl)-5a,5b,8,8,11a-pentamethyl-1-(prop-1-en-2-yl)-2,3,3a,4,5,5a,5b,6,7,7a,8,11,11a,11b,12,13,13a,13b-octadecahydro-1H-cyclopenta[a]chrysen-9-yl)benzoic acid] | < 100 | –
